According to patent publication US8524744B2, “Arylamine ketones, their preparation methods, the pharmaceutical composition containing them and their use” (Institute of Mataria Medica, Chinese Academy of Medical …, priority 2004, dated 2013):
Structures can show the parent of a compound that is named as a salt.

Columns and labels:
[1] = system: polymorphonuclear leucocytes from rat pleural cavity; experiment: release of β-glucuronidase by polymorphonuclear leucocytes from rat pleural cavity in vitro (PAF as irritant); assay type: cell-based
Outline: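 Carrageenan-elicited pleural PMNs from Wistar rats (2.5×10^6 cells/ml, Dulbecco's buffer) were incubated with compound 15 min at 37° C, then cytochalasin B 5 min, then PAF 5 min. β-Glucuronidase in supernatant was assayed with phenolphthalein-glucuronic acid, 18 h at 37° C, OD 550 nm after NaOH.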

[2] = molecular target: T1, PAF receptors of rat polymorphonuclear leucocytes (Rattus norvegicus, UniProt P46002); experiment: competitive binding of [3H]-PAF to its receptors of rat polymorphonuclear leucocytes; settings: 37° C., 30 min, read-out: IC50, competition with [3H]-PAF binding
T1 construct: The suspension of rat polymorphonuclear leucocytes was prepared; endogenous in cells; host or cells: rat polymorphonuclear leucocytes (primary, whole-cell suspension)
T1 sequence (P46002 whole entry): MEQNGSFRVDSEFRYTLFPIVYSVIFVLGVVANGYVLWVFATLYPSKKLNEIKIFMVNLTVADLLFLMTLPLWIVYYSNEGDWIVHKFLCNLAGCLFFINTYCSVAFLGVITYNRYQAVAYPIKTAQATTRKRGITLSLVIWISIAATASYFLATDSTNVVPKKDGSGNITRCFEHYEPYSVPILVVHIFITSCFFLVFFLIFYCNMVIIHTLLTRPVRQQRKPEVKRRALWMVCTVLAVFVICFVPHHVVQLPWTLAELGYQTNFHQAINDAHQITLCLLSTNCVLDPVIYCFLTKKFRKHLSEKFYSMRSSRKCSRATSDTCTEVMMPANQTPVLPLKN
Method: The suspension of rat polymorphonuclear leucocytes was prepared. 240 μl of cells suspension (2×10^6cells·ml^−1), 5 μl of [^3H](5 μmol·L^1) were added into each well. 5 μl of unlabeled PAF (5 μl mol·L^−1)was added into the well for the nonspecific binding. The series concentrations of compound were added into the well for the competitive binding and the corresponding volume of solvent was added into the wells for the total binding or the nonspecific binding. The reaction was kept in water bath at 37° C. for 30 min and stopped by ice bath. Reaction fluid was filtrated using the filter membrane which was rinsed by cold buffer to separate the free labeled ligand. The filter membrane was dried at 80° C. and placed into a vial for scintillation in which 5 ml of scintillation agent was poured. The radioactivity strength was measured by scintillation counter.

[3] = system: rat neutrophils; experiment: chemotaxis of rat neutrophils in vitro; assay type: cell-based; settings: Neutrophil, 4 hr, read-out: IC50, inhibition of chemotaxis
Method: The blood was collected from rat common carotid artery and anticoagulated. The neutrophils was isolated by 5% glucose solution and lymphocyte separating medium. 27 μl of irritant was added into the well at low part of the chemotaxis plate. The filter membrane was covered on the wells and the top part of the plate was assembled on the filter. 50 μl of cells suspension with various concentrations of compound or solvent was added into the well at top part of the plate. The plate was incubated at 37° C. for 4 hr. The filter was taken out, stained by hematoxylin and dehydrated. The cells migrated into the other side of the filter was counted by microscope.

[4] = system: intracellular calcium level of rat polymorphonuclear leucocytes; experiment: increase of intracellular calcium level of rat polymorphonuclear leucocytes (Fura-2/AM, PAF); assay type: cell-based; settings: Leucocyte, read-out: IC50, inhibition of the increase of intracellular calcium level
Method: 1% carrageenan was used to induce polymorphonuclear leucocytes from rat peritoneal cavity. The Fura-2/AM (final concentration: 3×10^−6 mol·L^−1) was added into cells suspension. 1 ml of cells suspension was added into the test tube with compound or solvent. The test tubes were placed in a shaking waterbath at 37° C. for 45 min. Then the test tubes were cooled at room temperature for 15 min. The cells were rinsed twice using HBSS to discarded Fura-2/AM remained in outside of the cells. The suspension of cells loaded with Fura-2/AM was added into the absorbent chamber of fluorospectrometer. The cells were kept to suspend at 37° C. and the fluorescence strength was measured at resting condition or after 20μl of PAF (1×10^−4 mol·L^−1), 20 μl of 10% Triton X-100 and 100 μl EGTA (500 mmol·L−1) was added, respectively. The changes of the intracellular level of calcium at the resting condition or after irritants were added was calculated by program for Ca^2+ measurement.

[5] = system: mouse ear edema induced by croton oil; experiment: mouse ear edema induced by croton oil; assay type: in vivo; settings: orally, 50 mg·kg^−1, Kunming mice
Method: Kuming mice (male, 18-22 g) were randomly divided into two groups (treatment and control) with 10 animals for each group. The animals were orally administrated with compounds or solvent, respectively. 1 hr later, 50 μl of 2% croton oil was smeared on the two sides of mouse left ear. After 4 hr the mice were sacrificed by cervical vertebra displacement. The two ears were cut off and the central sections were excised using a punch with a diameter of 8 mm and weighed. Edema was quantified as the weight difference between the two sections.

[6] = system: mouse paw swelling induced by carrageenan; experiment: mouse paw swelling induced by carrageenan; assay type: in vivo; settings: orally, 50 mg·kg^−1, Kunming mice
Method: Kunming mice (male, 18-22 g) were randomly divided into two groups (treatment and control) with 10 animals for each group. The animals were orally administrated with compounds or solvent, respectively. 1 hr later, 50 μl of 1% carrageenan was intracutaneously injected into the sole of right posterior foot. After 4 hr the animals were sacrificed by displacing cervical vertebra. The two paws were cut off at ankle joint and weighed. The swelling was evaluated by the difference of the weights of two paws.

[7] = system: cutaneous vascular permeability in mice induced by PAF; experiment: increase of cutaneous vascular permeability in mice induced by PAF; assay type: in vivo, mouse; settings: orally, 50 mg·kg^−1, Kunming mice
Method: Kunming mice (male, 18-22 g) were randomly divided into two groups (treatment and control) with 10 animals for each group. The animals were orally administrated with the compounds or solvent, respectively. 1 hr later, 0.25 ml of 1% evans blue dye was injected into the tail vein. After 10 min, 0.1 ml of PAF (1×10^−8 mol·L^−1) was intracutaneously injected into the dorsal skin shaved. 1 hr later, the animals were sacrificed by cervical vertebra displacement. The skin with blue spot was cut off. The evans blue dye was extracted by 0.8 ml of mixed solution of acetone and normal saline (7:3). The supernatant was transferred into the 96-well plate. The optical density was measured at 620 nm.

## O=C(C=Cc1ccc(C(F)(F)F)cc1)CCN1CCC(Cc2ccccc2)CC1 [Compound 20, 5-[(4-Benzyl)piperidyl]-1-(4-trifluoromethylphenyl)-1-penten-3-one hydrochloride]
[1]; Dose 1 × 10^−5 mol · L^−1, Irritant 1 × 10^−6 mol · L^−1
  Inhibition (%) of β-glucuronidase release: 104.03%
[1]; Leucocyte, rat polymorphonuclear leucocytes
  IC50: 308 nM
[2]
  IC50: 55000 nM
[3]
  IC50: 335 nM
[4]
  IC50: 5160 nM
[5]
  Inhibition (%) of mouse ear edema: 27.66%
[6]
  Inhibition (%) of mouse paw swelling: 21.46%
[7]
  Inhibition (%) of increase of cutaneous vascular permeability: 55.78%
